# Source: paper PMC7587356, “High-Throughput Screening for Inhibitors of the SARS-CoV-2 Protease Using a FRET-Biosensor” (Molecules, 2020)
# Where a name gives a salt, the structure may show the parent alone. Read-outs that look alike come from different tables or passages of the source.
# Target: SARS-CoV-2 3CLpro (Severe acute respiratory syndrome coronavirus 2, UniProt P0DTD1)
# Assay: biochemical
# Format: biochemical
# Set-up: Replicate_1 / Replicate_2 / mean / mean (LOPAC_screen_w_protease): unit not given here
# Details: for inhibition at 5 µM: 4 h; for mean (LOPAC screen with protease) / Replicate_1 (LOPAC screen with protease) / Replicate_2 (LOPAC screen with protease): primary screen at 5 µM
# [1] = sheet LOPAC_screen_w_protease, LOPAC1280 primary screen at 5 µM, with protease, replicate 1, read-out: Replicate_1
# [2] = sheet LOPAC_screen_w_protease, LOPAC1280 primary screen at 5 µM, with protease, replicate 2, read-out: Replicate_2
# [3] = sheet LOPAC_screen_w_protease, primary screen with protease, compound at 5 µM, mean of two replicates, read-out: mean
# [4] = sheet LOPAC_screen_w_protease, primary screen with protease, compound at 5 µM, replicate 1, read-out: Replicate_1
# [5] = sheet LOPAC_screen_w_protease, primary screen with protease, compound at 5 µM, replicate 2, read-out: Replicate_2
# [6] = sheet LOPAC_screen_w_protease, primary screen of LOPAC1280 at 5 µM with protease, mean of the two replicates, read-out: mean
# [7] = sheet LOPAC_screen_w_protease, primary screen of LOPAC1280 at 5 µM with protease, replicate 1, read-out: Replicate_1
# [8] = sheet LOPAC_screen_w_protease, primary screen of LOPAC1280 at 5 µM with protease, replicate 2, read-out: Replicate_2
# [9] = sheet LOPAC_screen_w_protease, primary screen with protease, compound at 5 µM, mean of two replicates
# [10] = sheet LOPAC_screen_w_protease, primary screen with protease, compound at 5 µM, replicate 1
# [11] = sheet LOPAC_screen_w_protease, primary screen with protease, compound at 5 µM, replicate 2
# [12] = sheet LOPAC_screen_w_protease, primary screen with protease, 5 µM, mean of two replicates
# [13] = sheet LOPAC_screen_w_protease, primary screen with protease, 5 µM, replicate 1
# [14] = sheet LOPAC_screen_w_protease, primary screen with protease, 5 µM, replicate 2
# [15] = sheet LOPAC_screen_w_protease, primary screen with protease, 5 µM, mean of two replicates, read-out: mean
# [16] = sheet LOPAC_screen_w_protease, primary screen with protease, 5 µM, replicate 1, read-out: Replicate_1
# [17] = sheet LOPAC_screen_w_protease, primary screen with protease, 5 µM, replicate 2, read-out: Replicate_2
# [18] = sheet LOPAC_screen_w_protease, LOPAC1280 primary screen with protease, 5 µM compound, mean of the two replicates, read-out: mean
# [19] = sheet LOPAC_screen_w_protease, LOPAC1280 primary screen with protease, 5 µM compound, replicate 1, read-out: Replicate_1
# [20] = sheet LOPAC_screen_w_protease, LOPAC1280 primary screen with protease, 5 µM compound, replicate 2, read-out: Replicate_2
# [21] = LOPAC1280 primary screen with protease, 5 µM compound, mean of two replicates
# [22] = LOPAC1280 primary screen with protease, 5 µM compound, replicate 1
# [23] = LOPAC1280 primary screen with protease, 5 µM compound, replicate 2
# [24] = LOPAC1280 primary screen with protease, 5 µM compound, mean of the two replicates
# [25] = sheet LOPAC_screen_w_protease, mean of two replicates
# [26] = sheet LOPAC_screen_w_protease, replicate 1
# [27] = sheet LOPAC_screen_w_protease, replicate 2
# [28] = sheet LOPAC_screen_w_protease, primary screen of LOPAC1280 at 5 µM with protease, mean of the two replicates
# [29] = sheet LOPAC_screen_w_protease, primary screen of LOPAC1280 at 5 µM with protease, replicate 1
# [30] = sheet LOPAC_screen_w_protease, primary screen of LOPAC1280 at 5 µM with protease, replicate 2
# [31] = LOPAC1280 primary screen with protease, 5 µM compound, replicate 1, read-out: Replicate_1 (LOPAC_screen_w_protease)
# [32] = LOPAC1280 primary screen with protease, 5 µM compound, replicate 2, read-out: Replicate_2 (LOPAC_screen_w_protease)
compound,measurement,setting,value
NC(=O)CC[C@H](N)C(=O)O [L-Glutamine],inhibition at 5 µM,"sheet LOPAC_screen_w_protease, LOPAC1280 primary screen at 5 µM, with protease, mean of the two replicates, read-out: mean",0.871%
same,inhibition at 5 µM,[1],2.13%
same,inhibition at 5 µM,[2],-0.384%
CCOC(=O)C(C)(C)Oc1ccc(Cl)cc1 [Clofibrate],inhibition at 5 µM,[3],2.71%
same,inhibition at 5 µM,[4],1.49%
same,inhibition at 5 µM,[5],3.93%
COc1cc2c(CCNC(C)=O)c[nH]c2cc1O [6-Hydroxymelatonin],mean,"sheet LOPAC_screen_w_protease, primary screen with protease, mean of two replicates",2.302
same,Replicate_1,"sheet LOPAC_screen_w_protease, primary screen with protease, replicate 1",3.2941
same,Replicate_2,"sheet LOPAC_screen_w_protease, primary screen with protease, replicate 2",1.31
CN(C(=O)CCCOc1ccc2[nH]c(=O)ccc2c1)C1CCCCC1 [Cilostamide],inhibition at 5 µM,"sheet LOPAC_screen_w_protease, primary screen with protease, mean of two replicates, read-out: mean",2.23%
same,inhibition at 5 µM,"sheet LOPAC_screen_w_protease, primary screen with protease, replicate 1, read-out: Replicate_1",1.11%
same,inhibition at 5 µM,"sheet LOPAC_screen_w_protease, primary screen with protease, replicate 2, read-out: Replicate_2",3.35%
CC(C)(CO)Cc1cc(C(C)(C)C)c(O)c(C(C)(C)C)c1 [CGP-7930],mean,"sheet LOPAC_screen_w_protease, LOPAC1280 at 5 µM, mean of two replicates",1.164
same,Replicate_1,"sheet LOPAC_screen_w_protease, LOPAC1280 at 5 µM, replicate 1",0.8273
same,Replicate_2,"sheet LOPAC_screen_w_protease, LOPAC1280 at 5 µM, replicate 2",1.5
O=C1NC(c2cccc([N+](=O)[O-])c2)=CCN1c1ccccc1O [Icilin],inhibition at 5 µM,[6],3.88%
same,inhibition at 5 µM,[7],4.52%
same,inhibition at 5 µM,[8],3.25%
NCCNC(=O)Cc1ccc(NC(=O)Cc2ccc(Nc3ncnc4c3ncn4[C@@H]3O[C@H](CO)[C@@H](O)[C@H]3O)cc2)cc1 [Adenosine amine congener],mean,[9],2.686
same,Replicate_1,[10],3.268
same,Replicate_2,[11],2.1037
O=C(O)Cc1c[nH]c2ccc(O)cc12 [5-Hydroxyindolacetic acid],mean,[12],-0.3702
same,Replicate_1,[13],1.641
same,Replicate_2,[14],-2.381
N=C(N)NC(=O)c1nc(Cl)c(N)nc1N [Amiloride hydrochloride],inhibition at 5 µM,[15],0.179%
same,inhibition at 5 µM,[16],-0.488%
same,inhibition at 5 µM,[17],0.846%
CC#C[C@]1(O)CC[C@H]2[C@@H]3CCC4=CC(=O)CCC4=C3[C@@H](c3ccc(N(C)C)cc3)C[C@@]21C [Mifepristone],inhibition at 5 µM,[18],4.62%
same,inhibition at 5 µM,[19],3.53%
same,inhibition at 5 µM,[20],5.7%
S=C=Nc1cccc(C2(N3CCCCC3)CCCCC2)c1 [Metaphit methanesulfonate],inhibition at 5 µM,[18],5.96%
same,inhibition at 5 µM,[19],6.38%
same,inhibition at 5 µM,[20],5.54%
COC(=O)C(C)(N)Cc1ccc(O)cc1.Cl (racemic),mean,[9],2.971
same,Replicate_1,[10],4.293
same,Replicate_2,[11],1.648
CC(C)(C=O)Cc1cc(C(C)(C)C)c(O)c(C(C)(C)C)c1 [CGP-13501],mean (LOPAC_screen_w_protease),[21],1.552
same,Replicate_1 (LOPAC_screen_w_protease),[22],-0.1889
same,Replicate_2 (LOPAC_screen_w_protease),[23],3.292
Cl.NC1C=CC=C(C(=O)O)C1 (stereo not drawn) [Gabaculine hydrochloride],mean (LOPAC_screen_w_protease),[24],2.074
same,Replicate_1 (LOPAC_screen_w_protease),[22],1.548
same,Replicate_2 (LOPAC_screen_w_protease),[23],2.6
CCCCCCCCCCCCCCCCCC(=O)NCC(COP(=O)([O-])OCC[N+](C)(C)C)OCC (racemic),mean,[9],3.086
same,Replicate_1,[10],5.031
same,Replicate_2,[11],1.141
"Cc1c(CC(C)(C)C(=O)O)n(Cc2ccc(Cl)cc2)c2ccc(F)cc12 [L-655,240]",mean (LOPAC_screen_w_protease),[21],1.677
same,Replicate_1 (LOPAC_screen_w_protease),[22],2.414
same,Replicate_2 (LOPAC_screen_w_protease),[23],0.9392
O=C1CCC(c2ccc(-n3ccnc3)cc2)=NN1 [Imazodan],inhibition at 5 µM,[15],-0.683%
same,inhibition at 5 µM,[16],0.89%
same,inhibition at 5 µM,[17],-2.26%
CN(C)CCC(c1ccccc1)c1ccccn1 (stereo not drawn) [Pheniramine maleate],inhibition at 5 µM,[15],-0.749%
same,inhibition at 5 µM,[16],0.594%
same,inhibition at 5 µM,[17],-2.09%
C[N+]1(C)CCOC(O)(c2ccc(-c3ccc(C4(O)C[N+](C)(C)CCO4)cc3)cc2)C1 (stereo not drawn) [Hemicholinium-3],inhibition at 5 µM,[3],2.72%
same,inhibition at 5 µM,[4],4.37%
same,inhibition at 5 µM,[5],1.08%
Cl.Cl.Oc1ccc2c3c1O[C@H]1c4[nH]c5c(c4C[C@@]4(O)[C@@H](C2)N(CC2CC2)CC[C@]314)C[C@@]1(O)[C@H]2Cc3ccc(O)c4c3[C@@]1(CCN2CC1CC1)[C@H]5O4 [nor-Binaltorphimine dihydrochloride],mean (LOPAC screen with protease),[25],34.0021
same,Replicate_1 (LOPAC screen with protease),[26],34.0521
same,Replicate_2 (LOPAC screen with protease),[27],33.9521
Nc1nccc2c1ncn2[C@@H]1O[C@H](CO)[C@@H](O)[C@H]1O [3-deazaadenosine],mean,[28],3.161
same,Replicate_1,[29],4.639
same,Replicate_2,[30],1.683
O=c1c2ccccc2[nH]c(=S)n1CCN1CCC(=C(c2ccc(F)cc2)c2ccc(F)cc2)CC1 [Diacylglycerol Kinase Inhibitor II],inhibition at 5 µM,"sheet LOPAC_screen_w_protease, LOPAC1280 primary screen at 5 µM, with protease, mean of two replicates, read-out: mean",-3.62%
same,inhibition at 5 µM,[1],-4.63%
same,inhibition at 5 µM,[2],-2.61%
CCCNC(=O)NS(=O)(=O)c1ccc(Cl)cc1 [Chlorpropamide],inhibition at 5 µM,[31],1.51%
same,inhibition at 5 µM,[32],2.73%
same,mean (LOPAC_screen_w_protease),[24],2.118
CN1C[C@H](CNC(=O)OCc2ccccc2)C[C@@H]2c3cccc4c3c(cn4C)C[C@H]21 [Metergoline],inhibition at 5 µM,[6],4.08%
same,inhibition at 5 µM,[7],2.56%
same,inhibition at 5 µM,[8],5.6%
"Cl.FC(F)(F)c1cc(CO[C@H]2CCCN[C@H]2c2ccccc2)cc(C(F)(F)F)c1 [L-733,060 hydrochloride]",mean,[28],3.689
same,Replicate_1,[29],3.241
same,Replicate_2,[30],4.136
Cl.NCCNC(=O)c1ccc(Cl)cc1 [Ro 16-6491 hydrochloride],mean,[12],-0.0598
same,Replicate_1,[13],0.2844
same,Replicate_2,[14],-0.404
Cl.NCCC[C@](N)(C(=O)O)C(F)F (racemic),mean,[9],3.129
same,Replicate_1,[10],3.2986
same,Replicate_2,[11],2.959
N#C/C(=C\c1ccc(O)c(O)c1)C(=O)c1ccc(O)c(O)c1 [Tyrphostin AG 538],mean (LOPAC_screen_w_protease),[21],1.741
same,Replicate_1 (LOPAC_screen_w_protease),[22],1.926
same,Replicate_2 (LOPAC_screen_w_protease),[23],1.555
"C[C@]12CC[C@@H](O)C[C@@H]1CC[C@@H]1[C@@H]2CC[C@]2(C)[C@@H](O)CC[C@@H]12 [5alpha-Androstane-3alpha,17beta-diol]",mean (LOPAC_screen_w_protease),[21],1.678
same,Replicate_1 (LOPAC_screen_w_protease),[22],0.2579
same,Replicate_2 (LOPAC_screen_w_protease),[23],3.098
Br.CO[C@H]1CC=C2CCN3CCC4=C(CC(=O)OC4)[C@]23C1 [Dihydro-beta-erythroidine hydrobromide],mean (LOPAC_screen_w_protease),[24],2.038
same,Replicate_1 (LOPAC_screen_w_protease),[22],1.621
same,Replicate_2 (LOPAC_screen_w_protease),[23],2.454
CC[C@H](C)[C@H]1O[C@]2(CC[C@@H]1C)C[C@@H]1C[C@@H](C/C=C(\C)[C@@H](O[C@H]3C[C@H](OC)[C@@H](O[C@H]4C[C@H](OC)[C@@H](O)[C@H](C)O4)[C@H](C)O3)[C@@H](C)/C=C/C=C3\CO[C@@H]4[C@H](O)C(C)=C[C@@H](C(=O)O1)[C@]34O)O2 [Ivermectin],mean,[9],2.889
same,Replicate_1,[10],2.826
same,Replicate_2,[11],2.952
S=C(Nc1ccccc1)Nc1nccs1 [1-Phenyl-3-(2-thiazolyl)-2-thiourea],mean (LOPAC screen with protease),[25],7.407
same,Replicate_1 (LOPAC screen with protease),[26],6.341
same,Replicate_2 (LOPAC screen with protease),[27],8.4724
CCCN(CCC)C1Cc2cc(OC)c(OC)cc2C1.O=C(O)/C=C\C(=O)O [U-99194A maleate],mean,[12],-0.07283
same,Replicate_1,[13],-1.037
same,Replicate_2,[14],0.891
CC1(C(=O)O)C2CCC(O2)C1(C)C(=O)O (stereo not drawn) [Cantharidic Acid],inhibition at 5 µM,[31],2.04%
same,inhibition at 5 µM,[32],1.78%
same,mean (LOPAC_screen_w_protease),[24],1.914
